Data set [1] deals with FMDV serotype A. Type of data set: cell-based, A/TAI/NP05/2016 (NP05).
The next data set deals with FMDV 3C^pro (Foot-and-mouth disease virus, UniProt P03306). The experiment in a line: cell-based. The conditions noted are these: for IC90: HEK-293T.
Data set [2] relates to IFN-antagonist activity of FMDV 3C^pro. Type of data set: cell-based, human.
In data set [3] the test system is FMDV. It is filed as cell-based, FMDV serotype A, A/TAI/NP05/2016 (NP05).
Data set [4] relates to FMDV. Type of data set: cell-based, FMDV serotype A, A/TAI/NP05/2016 (NP05). This is another data set of the same source.
The test system of the next data set is BHK-21 cells. The conditions noted are these: hamster.
The nature of data set [5]: in vitro. The following applies: hamster.
Data set [6] in a line: in vitro. The following applies: human.
Data set [7] has as its system FMDV serotype A. The data set is described as follows: organism not typed. The conditions noted are these: BHK-21.
Data set [8] deals with FMDV serotype A.
For the next data set, the system named is hepatitis B virus. The conditions noted are these: cited from earlier work.
The next data set has as its system chikungunya virus. The following applies: cited from earlier work.

SMILES strings stand for the structures. Values joined by “and” are separate entries in the source; they are usually repeats but may differ in a detail not shown here. Identical values can stand only once. Like-named read-outs stand apart in the source and are kept apart here.

Chain of FMDV 3C^pro (P03306 1650-1862 limits assumed): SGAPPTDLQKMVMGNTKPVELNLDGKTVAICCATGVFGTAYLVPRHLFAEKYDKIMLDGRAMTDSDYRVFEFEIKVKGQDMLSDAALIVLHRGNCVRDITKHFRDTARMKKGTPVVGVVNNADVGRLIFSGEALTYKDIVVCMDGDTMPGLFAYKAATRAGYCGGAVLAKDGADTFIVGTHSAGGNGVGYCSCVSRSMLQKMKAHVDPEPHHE

For `C=C1CC[C@@H]2[C@](C)(CO)[C@H](O)CC[C@@]2(C)[C@@H]1CCC1=CCOC1=O` [DAG, deoxyandrographolide], in the data set with FMDV serotype A [1], the “Viral nucleic acids (viral copy numbers)” value is given as “significantly decreased”. Also, at FMDV 3C^pro, half-maximal inhibition (IC50) required 25.6 ± 1.41 µM and the IC90 stood at 123 ± 2.09 µM. Besides, in data set [2], the “Effect on IFN-antagonist activity of 3C^pro” value (from here on “Effect”) is “significantly derepressed the IFN-antagonist activity of the 3C^pro”; the “ISG15 mRNA expression” value is 62.36 fold-changes and 64.43 fold-changes; the “ISG56 mRNA expression” value was 84.77 fold-changes and 77.60 fold-changes; the “Mx-1 mRNA expression” value is 14.37 fold-changes and 13.04 fold-changes. In [2], the “OAS-1 mRNA expression” value was 250.25 fold-changes and 244.76 fold-changes; the “PKR mRNA expression” value was 11.65 fold-changes and 12.84 fold-changes. Further, the Extracellular virucidal activity entry in the data set with FMDV [3] was “neither extracellular virucidal nor protection activities”. Moreover, the Protection activity result with FMDV [4] is on record as “neither extracellular virucidal nor protection activities”. In the data set on BHK-21 cells, this compound yielded a CC10 of 81.05 ± 0.01 µM and a CC50 of 332.3 ± 0.09 µM. In “in vitro [5]”, this compound returned a CC50 of 211.5 ± 0.03 µM. In “in vitro [6]”, the CC50 is 651.4 ± 0.32 µM. The EC50 in the data set on FMDV serotype A [7] stood at 36.47 ± 0.07 µM.

Regarding `C=C1CC[C@@H]2[C@](C)(CO[C@@H]3O[C@H](CO)[C@@H](O)[C@H](O)[C@H]3O)CCC[C@@]2(C)[C@@H]1CCC1=CCOC1=O` [NEO, neoandrographolide], the “Viral nucleic acids (viral copy numbers)” value in the data set on FMDV serotype A [1] is listed as “reduced viral replication to a lesser extent”. On FMDV 3C^pro, the IC50 is 111 ± 2.04 µM and the IC90 turned out to be 635.8 ± 2.9 µM. Further, in data set [2], the “Effect” value is “could not reduce the IFN suppression by 3C^pro”; the “ISG15 mRNA expression” value was 37.58 fold-changes and 32.91 fold-changes; the “ISG56 mRNA expression” value is 62.33 fold-changes and 55.39 fold-changes; the “Mx-1 mRNA expression” value is 2.19 fold-changes and 4.00 fold-changes. In data set [2], the “OAS-1 mRNA expression” value is 106.88 fold-changes and 163.69 fold-changes; the “PKR mRNA expression” value was 3.65 fold-changes and 1.99 fold-changes. Moreover, the Extracellular virucidal activity entry in the data set on FMDV [3] was “neither extracellular virucidal nor protection activities”. Besides, the Protection activity result with FMDV [4] is given as “neither extracellular virucidal nor protection activities”. In the data set on BHK-21 cells, this compound yielded a CC10 of 149.94 ± 0.21 µM and a CC50 of 211.5 ± 0.03 µM. In the data set with FMDV serotype A [8], the EC50 worked out at 542.4 ± 0.2 µM and the “SI (CC50/EC50)” value is listed as 0.38. Also, the CC50 in “in vitro [5]” is 332.3 ± 0.09 µM. Further, the CC50 in the data set “in vitro [6]” was found to be 914.2 ± 0.04 µM. Further, the half-maximal effective concentration (EC50) in the data set with FMDV serotype A [7] is over 500 µM.

`C=C1CC[C@@H]2[C@](C)(CO)[C@H](O)CC[C@@]2(C)[C@@H]1C/C=C1/C(=O)OC[C@H]1O` [AGL, andrographolide]: the “Viral nucleic acids (viral copy numbers)” value in the data set on FMDV serotype A [1] is recorded as “significantly decreased”. On FMDV 3C^pro, this compound gave a half-inhibitory concentration (IC50) of 67.4 ± 0.81 µM and an IC90 of 267.2 ± 2.43 µM. In data set [2], the “Effect” value is listed as “significantly derepressed the IFN-antagonist activity of the 3C^pro”; the “ISG15 mRNA expression” value was 52.93 fold-changes and 59.99 fold-changes; the “ISG56 mRNA expression” value was 72.73 fold-changes and 107.66 fold-changes; the “Mx-1 mRNA expression” value was 5.33 fold-changes and 6.98 fold-changes. Moreover, in data set [2], the “PKR mRNA expression” value was 6.22 fold-changes and 6.12 fold-changes. Besides, in the data set on FMDV [3], the Extracellular virucidal activity result is listed as “neither extracellular virucidal nor protection activities”. Also, in the data set with FMDV [4], the Protection activity result is “neither extracellular virucidal nor protection activities”. Besides, the CC10 in the data set on BHK-21 cells came out at 94.55 ± 0.02 µM. In addition, the “SI (CC50/EC50)” value in the data set with FMDV serotype A [8] was 2.23. Also, the EC50 in the data set with hepatitis B virus was 54.1 µM. The EC50 in the data set with chikungunya virus is 77.4 µM and 88 µM. This compound showed a CC50 in “in vitro [5]” of 116.8 ± 0.03 µM. Further, the CC50 in “in vitro [6]” was found to be 453 ± 0.04 µM. Besides, a half-maximal effect with FMDV serotype A [7] (EC50) was put at 52.18 ± 0.01 µM.

Usually IC50 stands for the concentration that inhibits the measured activity by half. What is called IC90 is the point of the concentration-response curve where the effect stands at 90%. In general, EC50 refers to the concentration giving half of the maximal effect.

Source of the values: article PMC9367459 (Animals : an Open Access Journal from MDPI, 2022).
